Series [1] deals with T1, Aβ40 (Homo sapiens, UniProt P05067).
T1 construct: Aβ40 (TFA salt) was synthesized by Fmoc-based solid phase synthesis (SPPS); made in house; host or cells: chemical synthesis (Fmoc SPPS on Tentagel R PHB resin)
Description: Fluorescence spectroscopic titration of Dac-Aβ40. Format: binding. The settings on record: Dac-Aβ40 10 nM, pH 7.4. The procedure: (§1) Fluorescence Spectroscopic Titration Studies
(§2) A JASCO FP-6500 fluorescence spectrophotometer was used for the fluorescence spectroscopic titrations, which were performed by using previously described experimental protocols. […] App. […] Briefly, freshly made stock solutions of peptides and fluorescently labeled analogs in HFIP were used. Measurements were performed in 10 mM sodium phosphate buffer, pH 7.4 ([…]) at room temperature within 2-5 min following solution preparation. […] App. Kds were estimated using 1/1 binding models as previously described. […] KdDs are means (+SD) from three binding curves.

The target in series [2] is T2, IAPP (Homo sapiens, UniProt P10997).
T2 sequence (P10997 34-70 limits assumed): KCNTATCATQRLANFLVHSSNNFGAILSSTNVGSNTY
Kind of series: Fluorescence spectroscopic titration of Fluos-IAPP. Format: binding. Also on record: IAPP was synthesized by SPPS and the Fmoc-strategy on RINK resin, subjected to air oxidation and purified by RP-HPLC; made in house; host or cells: chemical synthesis (Fmoc SPPS on RINK resin, air oxidation). As to conditions: Fluos-IAPP 5 nM, pH 7.4. The procedure: as §1, §2

Series [3] deals with T2, IAPP. Description: MTT reduction assay: IC50 of inhibitory effect on cell-damaging amyloid self-assembly of IAPP (RIN5fm cells). As for the experimental part: (§3) Assessment of Cell Damage by MTT Reduction Assay
(§4) Both cell lines were cultured and plated in 96-well plates as described. […] Following incubation with the cells for ˜20 h (37° C., humidified atmosphere with 5% CO2), the MTT reduction assay was used to assess cell damage/metabolic activity as previously described.
(Tetrazolium dyes change colour on reduction, which living cells bring about.)

The next series relates to hCMEC/D3 cells. Kind of series: Human BBB Transwell permeability assay (in vitro). As to conditions: hCMEC monolayer on Transwell; peptides 10 μM, Lucifer yellow 20 μM; mean (±SEM).
Series [4] is described as follows: Peptide stability in human plasma (in vitro). Format: in vitro ADME. As to conditions: human blood plasma, 200 μM peptide, 37° C. As for the experimental part:
Peptide Stability in Human Plasma (In Vitro)
Peptides were dissolved in human blood plasma (obtained from voluntary healthy donors) at a concentration of 200 μM and incubated at 37° C. for various time intervals. Following quenching (1/1) with aqueous trichloroacetic acid (10%), solutions were incubated on ice for 10 min, subjected to centrifugation to precipitate plasma proteins (20200 g; 4 min), and the supernatants were mixed (1/2) with a solution consisting of 80% HPLC buffer B and 20% HPLC buffer A (see below). To quantify intact peptide at different time points, solutions containing the supernatants were analyzed by RP-HPLC (detection at 214 nm) by using a Nucleosil 100 C18 column (Grace) (length 33 mm length, ID 8 mm, 7 μm particle size) with a flow rate of 2.0 ml/min and eluting buffers A, 0.058% (v/v) TFA in water, and B, 0.05% (v/v) TFA in 90% (v/v) CH3CN in water. The elution gradient was 10-90% B in A over 8 min; this step was followed by a 90-10% B in A over 3 min step to establish starting conditions. HPLC fractions were collected, lyophilized, and analyzed by MALDI-TOF-MS using a Bruker Daltonik MALDI-TOF MS instrument.

For series [5], the target named is T1, Aβ40. Description: MTT reduction assay: IC50 of inhibitory effect on cell-damaging amyloid self-assembly of Aβ40 (PC12 cells). Format: cell-based. The procedure:
as §3, §4

For series [6], the target named is recombinant human neprilysin (NEP) (Homo sapiens, UniProt P08473). As to conditions: peptide 100 μM, NEP 500 ng/ml, pH 6.5, 37° C.
Chain of recombinant human neprilysin (NEP) (P08473 whole entry): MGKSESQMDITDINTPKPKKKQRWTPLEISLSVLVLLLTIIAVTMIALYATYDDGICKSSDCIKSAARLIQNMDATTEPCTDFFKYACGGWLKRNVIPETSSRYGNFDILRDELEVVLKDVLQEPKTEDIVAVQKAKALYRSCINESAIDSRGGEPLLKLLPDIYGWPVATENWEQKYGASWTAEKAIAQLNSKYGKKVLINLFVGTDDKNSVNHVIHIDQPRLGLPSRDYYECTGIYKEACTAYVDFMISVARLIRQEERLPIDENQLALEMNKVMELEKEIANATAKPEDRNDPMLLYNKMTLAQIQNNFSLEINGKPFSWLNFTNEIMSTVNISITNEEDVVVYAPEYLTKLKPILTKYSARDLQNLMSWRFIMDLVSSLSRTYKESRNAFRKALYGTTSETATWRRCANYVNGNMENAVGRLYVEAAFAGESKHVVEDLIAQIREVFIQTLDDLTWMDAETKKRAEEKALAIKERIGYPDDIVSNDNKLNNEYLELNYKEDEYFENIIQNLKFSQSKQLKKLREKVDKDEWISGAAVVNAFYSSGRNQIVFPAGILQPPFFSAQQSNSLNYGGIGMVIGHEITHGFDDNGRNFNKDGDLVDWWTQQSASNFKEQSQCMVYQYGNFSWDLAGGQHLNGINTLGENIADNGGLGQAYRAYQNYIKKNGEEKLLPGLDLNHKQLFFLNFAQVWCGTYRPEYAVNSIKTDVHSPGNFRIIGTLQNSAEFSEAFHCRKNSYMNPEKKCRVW
Description: Peptide Stability Toward Degradation by Human Neprilysin (In Vitro)
At indicated time points aliquots were quenched (1/1) with aqueous trichloroacetic acid (10%) and solutions were subjected to HPLC analysis and HPLC fractions were collected and analyzed by MALDI-TOF-MS as described under “Peptide stability in human plasma” (above).
Where [7] appears, read: RP-HPLC and MALDI-TOF-MS, read-out: Half-life time in human plasma.
[8] abbreviates: Aβ40 500 nM, 72 h-aged solutions, PC12 cells, MTT reduction, means (±SD) from 3-4 titration assays, read-out: IC50 (±SD) (nM) Aβ40 inhibition.

Nine compounds from US11498943B2, “Amyloid inhibitory peptides” (TECHNISCHE UNIVERSITÄT MÜNCHEN, priority 2018, dated 2022) can be followed below.

Like-named read-outs stand apart in the source and are kept apart here. Where a SMILES comes first, the peptide text is derived from it. Bridges are numbered along the chain shown (N, C = ends). [ ]: non-standard residue; d: D form. The star is where a group is joined. 5FAM = O=C1OC2(c3ccc(O)cc3Oc3cc(O)ccc32)c2ccc(C(=O)*)cc21; NMeI = CC[C@H](C)[C@H](NC)C(=O)O; Sar = CNCC(=O)O A value given as a limit tells only on which side of the number the result lay.

The term Papp A→B denotes how fast a substance crosses the layer from the apical side. High values mean ready permeation, low ones poor permeation. Usually IC50 stands for the concentration at which inhibition is half-maximal.

T1 sequence (P05067 672-711): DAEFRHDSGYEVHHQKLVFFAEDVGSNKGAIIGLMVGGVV
Description for hCMEC/D3 cells: Human BBB Transwell Permeability Assay (In Vitro)
Human cerebral microvascular endothelial (hCMEC/D3) cells (Merck) were cultured in collagen type I-coated dishes in EndoGro-MV complete culture media kit supplemented with 1 ng/mL fibroblast growth factor-2 (FGF-2) (all reagents from Merck) (at 37° C. and 5% CO2). […] The Transwell permeability assay was then performed based on a previously established assay using 24-well plates (Sigma-Aldrich) containing 6.5 mm Transwell inserts (0.4 μm pore polycarbonate membrane (Corning)) as follows:
hCMEC/D3 cells were grown in endothelial cell medium (ECM), containing EndoGro-MV complete media, 10% fetal bovine serum (FBS), 1% penicillin-streptamycine (P/S), and 1 ng/mL FGF-2 on the membranes of the Transwell inserts (2×10^5 cells/insert) (37° C. and 5% CO2) until full confluency was reached (normally after 5-7 days of culture). Confluency and BBB-type tightness was verified by TEER analysis; TEER values of 60-80 Ωcm^2 were obtained. The upper and lower chambers then were reconstituted with 200 μl and 800 μl, respectively, of ECM containing 2% FBS. The N-terminal fluorescein-labeled 12 amino acid-long peptide [sequence]-amide (Fluos-Trfb) known to readily cross the BBB via binding to the transferrin receptor, was used as a positive control for BBB permeability in this model.
As a reference point for the maximum fluorescence intensity, 100 μl of medium from the upper chamber at 0 h was also transferred and quantified. […] Lucifer yellow in the lower chamber was quantified by measuring the fluorescence at 530 nm (excitation at 485 nm). Relative permeability (FIG. 3f) was calculated by dividing the fluorescence value of the aliquot from the lower chamber at each time point by the fluorescence value of the 0 h-lower chamber aliquot.
Reported Papp values are means (±SEM) from at least 3 transport assays (each of them performed in triplicates).

Consider `CC[C@H](C)[C@H]1C(=O)N[C@@H](CC(C)C)C(=O)N[C@@H](CO)C(=O)N[C@H](C(N)=O)CSSC[C@H](N)C(=O)N[C@@H](C)C(=O)N[C@@H]([C@@H](C)O)C(=O)N[C@@H](CCC(N)=O)C(=O)N[C@@H](CCCNC(=N)N)C(=O)N[C@@H](CC(C)C)C(=O)N[C@@H](C)C(=O)N[C@@H](CC(N)=O)C(=O)N[C@@H](Cc2ccccc2)C(=O)N[C@@H](CC(C)C)C(=O)N[C@@H](C(C)C)C(=O)N[C@@H](Cc2c[nH]cn2)C(=O)N[C@@H](CCCNC(=N)N)C(=O)N[C@@H](CCCNC(=N)N)C(=O)N[C@@H](CCCNC(=N)N)C(=O)N[C@@H](CC(N)=O)C(=O)N[C@@H](Cc2ccccc2)C(=O)N(C)CC(=O)N[C@@H](C)C(=O)N1C` [Peptide 1a] (H-CATQRLANFLVHRRRNF[Sar]A[NMeI]LSC-NH2; disulfide 1-23; N-terminus assumed), for which the “app. Kd of interaction with N-terminal fluorescently labeled Aβ40” value on Aβ40 [1] is reported as “mid-nanomolar”. The “app. Kd of interaction with N-terminal fluorescently labeled IAPP” value at IAPP [2] was “mid-nanomolar”.

Take `CC[C@H](C)[C@H]1C(=O)N[C@@H](CC(C)C)C(=O)N[C@@H](CO)C(=O)N[C@H](C(N)=O)CSSC[C@H](N)C(=O)N[C@@H](CC(N)=O)C(=O)N[C@@H](Cc2ccccc2)C(=O)N[C@@H](CC(C)C)C(=O)N[C@@H](C(C)C)C(=O)N[C@@H](Cc2c[nH]cn2)C(=O)N[C@@H](CCCNC(=N)N)C(=O)N[C@@H](CCCNC(=N)N)C(=O)N[C@@H](CCCNC(=N)N)C(=O)N[C@@H](CC(N)=O)C(=O)N[C@@H](Cc2ccccc2)C(=O)N(C)CC(=O)N[C@@H](C)C(=O)N1C` [Peptide 2a] (H-CNFLVHRRRNF[Sar]A[NMeI]LSC-NH2; disulfide 1-17; N-terminus assumed): the “app. Kd of interaction with N-terminal fluorescently labeled Aβ40” value on Aβ40 [1] is “mid-nanomolar”. For the same compound, the “Potency against IAPP cytotoxic self-assembly relative to 1a” value on IAPP [3] (ratio of IC50s) is approximately 3 fold. Besides, the “app. Kd of interaction with N-terminal fluorescently labeled IAPP” value on IAPP [2] is “mid-nanomolar”.

In turn, `CC[C@H](C)[C@H]1C(=O)NCC(=O)NCC(=O)N[C@@H](C(N)=O)CSSC[C@@H](NC(=O)c2ccc3c(c2)C(=O)OC32c3ccc(O)cc3Oc3cc(O)ccc32)C(=O)NCC(=O)N[C@H](Cc2ccccc2)C(=O)N[C@H](CC(C)C)C(=O)NCC(=O)NCC(=O)N[C@H](CCCNC(=N)N)C(=O)N[C@H](CCCNC(=N)N)C(=O)N[C@H](CCCNC(=N)N)C(=O)NCC(=O)N[C@H](Cc2ccccc2)C(=O)N(C)CC(=O)NCC(=O)N1C` [Fluos-2e] (5FAM-[dC]G[dF][dL]GG[dR][dR][dR]G[dF][Sar]G[NMeI]GG[dC]-NH2; disulfide 1-17; N-terminus assumed) showed a Papp A→B of 14.6 ×10⁻⁶ cm/s.

On to Lucifer yellow, for which the “Apparent permeability (Papp) at 2 h” value in the series on hCMEC/D3 cells is given as 5.3×10^−6 (±2.7) cm/s.

As for `CSCC[C@H](NC(=O)[C@@H]1CCCN1C(=O)[C@@H]1CCCN1C(=O)[C@H](CCCNC(=N)N)NC(=O)[C@H](Cc1c[nH]cn1)NC(=O)[C@@H](NC(=O)c1ccc2c(c1)C(=O)OC21c2ccc(O)cc2Oc2cc(O)ccc21)[C@@H](C)O)C(=O)N[C@@H](Cc1c[nH]c2ccccc12)C(=O)N[C@@H](CO)C(=O)N1CCC[C@H]1C(=O)N[C@H](C(=O)N[C@@H](Cc1c[nH]c2ccccc12)C(=O)N1CCC[C@H]1C(N)=O)C(C)C` [Fluos-Trfb, reference compound] (5FAM-THRPPMWSPVWP-NH2; N-terminus assumed), the Papp A→B was found to be 20.8 ×10⁻⁶ cm/s.

On to `CC[C@H](C)[C@H]1C(=O)NCC(=O)NCC(=O)N[C@H](C(N)=O)CSSC[C@H](N)C(=O)NCC(=O)N[C@@H](Cc2ccccc2)C(=O)N[C@@H](CC(C)C)C(=O)NCC(=O)NCC(=O)N[C@@H](CCCNC(=N)N)C(=O)N[C@@H](CCCNC(=N)N)C(=O)N[C@@H](CCCNC(=N)N)C(=O)NCC(=O)N[C@@H](Cc2ccccc2)C(=O)N(C)CC(=O)NCC(=O)N1C` [Peptide 2b] (H-CGFLGGRRRGF[Sar]G[NMeI]GGC-NH2; disulfide 1-17), for which the half-life at 200 μM in series [4] (read-out: t1/2 in human plasma) is approximately 0.75 h. For the same compound, on Aβ40 [1], the “app. Kd of interaction with N-terminal fluorescently labeled Aβ40” value is “mid-nanomolar”. The values for the IC50 against IAPP [3] and on Aβ40 [5] were 426 nM and 654 nM, respectively. Besides, the “app. Kd of interaction with N-terminal fluorescently labeled IAPP” value at IAPP [2] is recorded as “mid-nanomolar”.

`CC[C@H](C)[C@H]1C(=O)NCC(=O)NCC(=O)N[C@@H](C(N)=O)CSSC[C@@H](N)C(=O)NCC(=O)N[C@H](Cc2ccccc2)C(=O)N[C@H](CC(C)C)C(=O)NCC(=O)NCC(=O)N[C@H](CCCNC(=N)N)C(=O)N[C@H](CCCNC(=N)N)C(=O)N[C@H](CCCNC(=N)N)C(=O)NCC(=O)N[C@H](Cc2ccccc2)C(=O)N(C)CC(=O)NCC(=O)N1C` [Peptide 2e] (H-[dC]G[dF][dL]GG[dR][dR][dR]G[dF][Sar]G[NMeI]GG[dC]-NH2; disulfide 1-17): the half-life at 200 μM in series [4] (setting [7]) was more than 11 h. In addition, the “Resistance to degradation by human neprilysin” value in series [6] is listed as “fully resistant to degradation”. The compound also gave an IC50 against Aβ40 [5] of 542 nM.

On to `CC[C@H](C)[C@H]1C(=O)NCC(=O)NCC(=O)N[C@H](C(N)=O)CSSC[C@H](N)C(=O)NCC(=O)N[C@@H](Cc2ccccc2)C(=O)N[C@@H](CC(C)C)C(=O)NCC(=O)NCC(=O)N[C@H](CCCNC(=N)N)C(=O)N[C@H](CCCNC(=N)N)C(=O)N[C@H](CCCNC(=N)N)C(=O)NCC(=O)N[C@@H](Cc2ccccc2)C(=O)N(C)CC(=O)NCC(=O)N1C` [Peptide 2c] (H-CGFLGG[dR][dR][dR]GF[Sar]G[NMeI]GGC-NH2; disulfide 1-17), for which, in series [4] (setting [7]), the half-life at 200 μM fell in the range of 1 to 2 h. Also, the IC50 at Aβ40 [5] (setting [8]) was 204 nM.

With `CC[C@H](C)[C@H]1C(=O)NCC(=O)NCC(=O)N[C@H](C(N)=O)CSSC[C@H](N)C(=O)NCC(=O)N[C@H](Cc2ccccc2)C(=O)N[C@H](CC(C)C)C(=O)NCC(=O)NCC(=O)N[C@H](CCCNC(=N)N)C(=O)N[C@H](CCCNC(=N)N)C(=O)N[C@H](CCCNC(=N)N)C(=O)NCC(=O)N[C@H](Cc2ccccc2)C(=O)N(C)CC(=O)NCC(=O)N1C` [Peptide 2d] (H-CG[dF][dL]GG[dR][dR][dR]G[dF][Sar]G[NMeI]GGC-NH2; disulfide 1-17), the half-life at 200 μM in series [4] (setting [7]) fell in the range of 1 to 2 h. The IC50 at Aβ40 [5] (setting [8]) is 703 nM.
